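1) Cells in 96-well plates. 2) Compound, 48 h, 5 concentrations. 3) Linear interpolation between surrounding doses. 4) Unreached endpoint = highest concentration. Abbreviation: GI50, concentration required for 50% inhibition of growth.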 Activity calls are given as the source filed them. No stated cut-off is given here; in the data, active = GI50 up to about 1.1 µM and inactive = higher.
Key:
Experiment in all cases: NCI anticancer screen, dose series, 48 h
[1] = system: UO-31
[2] = system: CCRF-CEM
[3] = system: HCT-116
[4] = system: RPMI-8226
[5] = system: SN12C
[6] = system: SF-295
[7] = system: OVCAR-5
[8] = system: SNB-19
[9] = system: NCI-H460
[10] = system: SK-MEL-2
[11] = system: NCI-H23
[12] = system: NCI-H522
[13] = system: HOP-92
[14] = system: DMS-273
[15] = system: HCC 2998
[16] = system: XF498
[17] = system: HL-60
[18] = system: NCI/ADR-RES
[19] = system: CAKI-1
[20] = system: OVCAR-8
[21] = system: SNB-78
[22] = system: Malme-3M
[23] = system: DLD-1
[24] = system: KM12
[25] = system: SF-539
[26] = system: MOLT-4
[27] = system: A549
[28] = system: SNB-75
[29] = system: M19-MEL
[30] = system: SK-MEL-5
[31] = system: A498
[32] = system: UACC-62
[33] = system: HOP-62
[34] = system: K562
[35] = system: HT-29
[36] = system: U-251
[37] = system: SW-620
[38] = system: UACC-257
[39] = system: DMS-114
[40] = system: LOX IMVI
[41] = system: MCF7
[42] = system: OVCAR-3
[43] = system: OVCAR-4
[44] = system: IGROV-1
[45] = system: RXF 393
[46] = system: SK-OV-3
[47] = system: HCT-15
[48] = system: NCI-H226
[49] = system: SF-268
[50] = system: HOP-18
[51] = system: SK-MEL-28
[52] = system: EKVX
[53] = system: COLO 205
[54] = system: KM-20L2

Measured: GI50

O=C(O)CNS(=O)(=O)c1ccc(NC(=O)Nc2ccccc2)cc1
> 100 µM: [47]
inactive: [1] > 100 µM | [2] > 100 µM | [3] > 100 µM | [4] > 100 µM | [5] > 100 µM | [6] > 100 µM | [7] > 100 µM | [8] > 100 µM | [9] > 100 µM | [10] > 100 µM | [11] > 100 µM | [12] > 100 µM | [13] > 100 µM | [14] > 100 µM | [15] > 100 µM | [16] > 100 µM | [17] > 31.6 µM | [18] > 100 µM | [19] > 100 µM | [20] > 100 µM | [21] > 100 µM | [22] > 100 µM | [23] > 100 µM | [24] > 100 µM | [25] > 100 µM | [26] > 100 µM | [27] > 100 µM | [28] > 100 µM | [29] > 38 µM | [30] > 100 µM | [31] > 100 µM | [32] > 38.3 µM | [33] > 100 µM | [34] > 100 µM | [35] > 100 µM | [36] > 100 µM | [37] > 100 µM | [38] > 100 µM | [39] > 100 µM | [40] > 100 µM | [41] > 100 µM | [42] > 100 µM | [43] > 100 µM | [44] > 37.6 µM | [45] > 100 µM | [46] > 100 µM | [48] > 100 µM | [49] > 100 µM | [50] > 100 µM | [51] > 100 µM | [52] > 100 µM | [53] > 100 µM | [54] > 100 µM

CC(NCCS(=O)(=O)O)C(=O)O (configuration not stated)
inactive: [1] > 100 µM | [2] > 100 µM | [3] > 100 µM | [4] > 100 µM | [5] > 100 µM | [6] > 100 µM | [7] > 100 µM | [8] > 100 µM | [9] > 100 µM | [10] > 100 µM | [11] > 100 µM | [12] > 100 µM | [13] > 100 µM | [14] > 100 µM | [15] > 100 µM | [16] > 100 µM | [17] > 100 µM | [18] > 100 µM | [19] > 100 µM | [20] > 100 µM | [21] 99.8 µM | [22] > 100 µM | [23] > 100 µM | [24] > 100 µM | [25] > 100 µM | [26] > 100 µM | [27] > 100 µM | [28] > 100 µM | [29] > 100 µM | [30] > 100 µM | [31] > 77.3 µM | [32] > 100 µM | [33] > 100 µM | [34] > 100 µM | [35] > 100 µM | [36] > 100 µM | [37] > 100 µM | [38] > 100 µM | [39] > 100 µM | [40] > 100 µM | [41] > 100 µM | [42] > 45.6 µM | [43] > 100 µM | [44] > 100 µM | [45] > 100 µM | [46] > 100 µM | [48] > 100 µM | [49] > 100 µM | [50] > 100 µM | [51] > 100 µM | [52] > 100 µM | [53] > 100 µM | [54] > 100 µM
> 100 µM: [47]

Cc1c2cc[n+](Cc3ccc(I)cc3)cc2c(C)c2c1[nH]c1ccccc12
active: [2] 0.448 µM | [3] 0.574 µM | [4] 0.518 µM | [5] 0.548 µM | [6] 0.296 µM | [8] 0.471 µM | [9] 0.281 µM | [10] 0.614 µM | [11] 0.65 µM | [12] 0.692 µM | [13] 0.56 µM | [14] 0.506 µM | [15] 0.881 µM | [16] 0.433 µM | [17] 0.488 µM | [19] 0.714 µM | [20] 0.685 µM | [21] 0.731 µM | [22] 0.582 µM | [23] 0.94 µM | [24] 0.402 µM | [26] 0.574 µM | [27] 0.849 µM | [28] 0.0914 µM | [29] 0.254 µM | [30] 0.49 µM | [31] 0.697 µM | [32] 1.12 µM | [33] 0.778 µM | [34] 0.643 µM | [35] 0.857 µM | [36] 0.21 µM | [37] 0.912 µM | [38] 0.646 µM | [39] 0.605 µM | [41] 0.783 µM | [42] 0.791 µM | [43] 0.546 µM | [44] 1.1 µM | [45] 0.893 µM | [48] 0.552 µM | [49] 0.495 µM | [50] 1 µM | [53] 0.61 µM | [54] 0.748 µM
inactive: [1] 3.14 µM | [7] 1.37 µM | [18] > 25 µM | [25] 1.74 µM | [40] 2.16 µM | [46] 3.84 µM | [51] 1.45 µM | [52] 1.19 µM
7.8 µM: [47]

— ChEMBL document CHEMBL1201862, “PubChem BioAssay data set” (2004)
